The source of these data is ChEMBL document CHEMBL5244275, “Geminal Diheteroatomic Motifs: Some Applications of Acetals, Ketals, and Their Sulfur and Nitrogen Homologues in Medicinal Chemistry and Drug Design” (J Med Chem, 2021).

SMILES strings stand for the structures. In brackets after ≈: the same amount, converted by molar mass.

Usually IC50 stands for the concentration that inhibits the measured activity by half. One may read the bioavailability as dose-corrected exposure relative to a reference, in per cent. A higher bioavailability goes with much systemic uptake. The term solubility denotes how much of the substance goes into solution per volume. Read a high solubility as much dissolved substance. The EC50 is the midpoint of the concentration-response curve. As a reminder, the inhibition is the change of the read-out against control, counted positive when it falls. A higher inhibition goes with a response far below the control. One may read the MIC as the least concentration at which growth counts as inhibited. As usually defined, the Cmax is the peak of the concentration-time curve. Broadly, the half-life is the time needed for the level to fall by half in the phase considered. As a reminder, the pKa is the pH at which an ionisable group is half protonated. Low values mean a stronger acid or weaker base, high ones a weaker acid or stronger base. In general, ED50 refers to the dose at which the effect has come halfway, by size or by number of responders. By MFC is commonly meant the lowest tested concentration that kills the fungus rather than only halting it. Low readings indicate more potent killing, high ones less potent killing.

Data set [1] is described as follows: Inhibition of Calcium channel (unknown origin). Set-up: species or system Homo sapiens.
A short description of data set [2]: Aqueous stability of the compound assessed as acid-catalyzed decomposition by measuring rate constant. The data set is classed as physicochemical. The conditions noted are these: buffer.
Data set [3] in a line: Oral bioavailability in rat. The data set is classed as ADME, organism-based. Conditions: in vivo.
Data set [4] is described as follows: Aqueous solubility of compound. It is filed as physicochemical. Conditions: aqueous (not further specified).
For another data set, the system named is Hepatitis C virus. As to the kind of experiment: Antiviral activity against Hepatitis C virus genotype 1a harboring NS5A Y93H mutant. It is filed as functional, organism-based, Hepacivirus hominis.
A short description of data set [5]: Stability of the compound in 20% aqueous dioxane solution at 30 degreeC assessed as compound hydrolysis by measuring rate constant. The data set is classed as physicochemical. The conditions noted are these: buffer.
A short description of data set [6]: Inhibition of Leukotriene B4 production in human blood Polymorphonuclear neutrophil cells. It is filed as functional, tissue-based.
Data set [7] has as its target Human immunodeficiency virus type 1 protease (Human immunodeficiency virus 1, UniProt Q72874). Put plainly: Inhibition of HIV-1 protease.
The subject of data set [8] is Escherichia coli. As to the kind of experiment: Inhibition of Escherichia coli beta-lactamase at 1 uM relative to control.
In data set [9] the test system is Human immunodeficiency virus 1. Put plainly: microbe, parasite or virus in culture. The conditions noted are these: Human immunodeficiency virus 1, LAV.
A short description of data set [10]: Oral bioavailability in human. It is filed as ADME, organism-based. Conditions: in vivo.
In another data set the test system is Pasteurella multocida. Put plainly: Antibacterial activity against Pasteurella multocida 59A0067 assessed as inhibition of bacterial growth by microdilution method. The data set is classed as functional. A general note: Broth dilution looks for growth in wells or tubes with falling amounts of substance.
The test system of data set [11] is Escherichia coli. As to the kind of experiment: Antibacterial activity against Escherichia coli 51A0150 assessed as inhibition of bacterial growth by microdilution method. The data set is classed as functional.
The next data set concerns Staphylococcus aureus. As to the kind of experiment: Antibacterial activity against Staphylococcus aureus 01A0785 assessed as inhibition of bacterial growth by microdilution method. The data set is classed as functional.
Data set [12] can be described thus: Cmax in rat plasma at 20 mg/kg, po. It is filed as ADME, organism-based. Set-up: dose 20 mg/kg, route po.
A short description of data set [13]: Stability of the compound at pH 7.4 aqueous phosphate buffer assessed as half-life. It is filed as physicochemical.
The nature of data set [14]: Dissociation constant, pKa of the compound. The data set is classed as physicochemical.
Data set [15] in a line: Stability of the compound in 1M HCL buffer assessed as drug degradation by measuring rate constant by FRET-based assay. The data set is classed as physicochemical.
The test system of the next data set is Mus musculus. Put plainly: Antiinflammatory activity in LPS-induced Balb/c mouse model assessed as reduction in TNF-alpha release administered orally for 30 mins followed by LPS-stimulation and measured after 90 mins by ELISA analysis. The data set is classed as functional. The conditions noted are these: 2 h, route po, time 120 min. (ELISA stands for enzyme-linked immunosorbent assay.)

The subject of data set [16] is Candida albicans. Put plainly: Antifungal activity against Candida albicans GS. The data set is classed as functional, organism-based.
For data set [17], the system named is Candida albicans. Put plainly: Fungicidal activity against Candida albicans. It is filed as functional.

On to `C[C@@H](O[C@H]1OCCN(Cc2n[nH]c(=O)[nH]2)[C@H]1c1ccc(F)cc1)c1cc(C(F)(F)F)cc(C(F)(F)F)c1` [APREPITANT], for which, in data set [1], the half-inhibitory concentration (IC50) was more than 1000 nM. As to `Cc1ccc(C2OCCS2)cc1` (stereo not drawn), in data set [2], the K was 0.146 min⁻¹.

In the case of `O=C1CCC2(CC1)OOC1(O2)C2CC3CC(C2)CC1C3` (stereo not drawn), in [3], the bioavailability was less than 1%. Also, in data set [4], the solubility is less than 0.001 mg/mL. `COC(=O)N[C@H](C(=O)N1CCC[C@H]1c1ncc(-c2ccc(-c3cc4cc(-c5cnc([C@@H]6CCCN6C(=O)[C@@H](NC(=O)OC)C(C)C)[nH]5)ccc4o3)cc2)[nH]1)C(C)C` returned an EC50 with Hepatitis C virus of 27 nM.

In the case of `c1ccc(C2(c3ccccc3)OCCO2)cc1`, the K in data set [5] is 3.6 10^-2/M/s. In turn, `O=C1OCc2c1cc1cc(OCc3cccc(C4(O)CC5COC(C4)O5)c3)ccc1c2-c1ccccc1` (stereo not drawn) yielded an IC50 in data set [6] of 6 nM. As for `CC(C)(C)NC(=O)[C@@H]1C[C@@H]2CCCC[C@@H]2CN1C[C@@H](O)[C@H](Cc1ccccc1)NC(=O)O[C@H]1CC[C@H]2OCC[C@@H]12`, in data set [7], the IC50 is 17 nM. Regarding `CC1(C)[C@H](C(=O)O)N2C(=O)/C(=C/c3ccccn3)[C@H]2S1(=O)=O`, in the data set on Escherichia coli [8], the inhibition worked out at 100%. As to `Nc1nc(=O)n([C@H]2CS[C@@H](CO)O2)cc1F`, a half-maximal effect in data set [9] (EC50) was put at 840 nM.

In data set [10], `CC(C)[C@H](N)C(=O)OCC(CO)OCn1cnc2c(=O)nc(N)[nH]c21` (stereo partly drawn) [VALGANCICLOVIR] gave a bioavailability of 65%. In data set [4], the solubility is 70 mg/mL (≈ 198000 µM). In the data set on Hepatitis C virus, `COC(=O)N[C@H](C(=O)N1CCC[C@H]1c1ncc(-c2cc(F)c3c(c2)O[C@@H](c2cnc(C4CC4)s2)n2c-3cc3cc(-c4cnc([C@@H]5CCCN5C(=O)[C@@H](NC(=O)OC)C(C)C)[nH]4)ccc32)[nH]1)C(C)C` [RUZASVIR] displayed an EC50 of 0.06 nM.

As for `CC[C@@H]1C[C@H](O)[C@@H](C)NC[C@H](C)C[C@@]2(C)OC3(CCN(C(=O)c4ccco4)CC3)O[C@@H]([C@H](C)[C@H]2O[C@@H]2O[C@H](C)C[C@H](N(C)C)[C@H]2O)[C@@H](C)C(=O)O1`, the MIC in the data set on Pasteurella multocida came out at 0.05 mg/L (≈ 0.0693 µM); in the data set with Escherichia coli [11], 0.78 mg/L (≈ 1.08 µM); in the data set on Staphylococcus aureus it was 0.78 mg/L (≈ 1.08 µM). `O=C(O)[C@H]1/C(=C/CO)O[C@@H]2CC(=O)N21` showed an inhibition with Escherichia coli [8] of 81%. `N#Cc1cc(-c2ccoc2)c2ccc(OCc3cccc(C4(O)CC5COC(C4)O5)c3)cc2c1` (stereo not drawn) yielded a bioavailability in data set [3] of 10%. Also, the peak level in [12] (Cmax) was 2.5 µM. Also, the IC50 in data set [6] is 3 nM.

`COc1ccc(S(=O)(=O)N(CC(C)C)C[C@@H](O)[C@H](Cc2ccccc2)NC(=O)O[C@H]2CO[C@H]3O[C@@H]4OCC[C@@H]4[C@H]32)cc1`: the IC50 in data set [7] stood at 1.8 nM.

As to `CCCCC[C@H](O)/C=C/[C@H]1O[C@@H]2O[C@@H]([C@H]2F)[C@@H]1C/C=C\CCCC(=O)O`, the half-life in [13] is 20 days. On to `C1CCC2(CC1)OOC1(O2)C2CC3CC(C2)CC1C3` (stereo not drawn), for which the bioavailability in data set [3] was less than 1%. In [4], this compound yielded a solubility of less than 0.001 mg/mL. In data set [14], `FC(F)(F)c1cc(CO[C@H]2CCCN[C@H]2c2ccccc2)cc(C(F)(F)F)c1` registered a pKa of 8.3. In addition, in data set [1], the IC50 worked out at 780 nM.

With `COc1cc(/N=N/c2ccc([N+](=O)[O-])cc2)c(OC)cc1/N=N/c1ccc(N(C)CCCC(=O)NCCSC2CC(=O)N(CC3OCC(C(=O)NCCCNC(=O)c4ccc(C(=O)[O-])c(-c5c6ccc(=[N+](C)C)cc-6oc6cc(N(C)C)ccc56)c4)CO3)C2=O)cc1` (stereo not drawn), the K in data set [15] was 3.8 10^-7/s. Turning to `C[S+]([O-])c1ccc(-c2nc(-c3ccncc3)c(-c3ccc(F)cc3)[nH]2)cc1` (stereo not drawn) [SB-203580], the bioavailability in data set [3] worked out at 10%. For the same compound, in the data set with Mus musculus, the ED50 worked out at 10 mg/kg.

The compound `CC1(C)[C@H](C(=O)O)N2C(=O)/C(=C/c3ccccc3)[C@H]2S1(=O)=O` showed an inhibition with Escherichia coli [8] of 28%. Consider `CCOC(OCC)(c1ccccc1)c1ccccc1`, for which the K in [5] was 4.3 10^-1/M/s. With `CC[C@H](C)C[C@H](C)CCCCCCCCC(=O)N[C@H]1C[C@@H](O)[C@@H](OCCN)NC(=O)[C@@H]2[C@@H](O)CCN2C(=O)[C@H]([C@H](O)CC(N)=O)NC(=O)[C@H]([C@H](O)[C@@H](O)c2ccc(O)cc2)NC(=O)[C@@H]2C[C@@H](O)CN2C(=O)[C@H]([C@@H](C)O)NC1=O`, the IC50 in the data set on Candida albicans [16] came to 10 nM. In the data set with Candida albicans [17], the MFC was 0.25 mg/L (≈ 0.226 µM).
